Among the test systems are KM12 colon; HOP-62 NSCLC; DMS 114 small cell lung; SK-MEL-2 melanoma; HL-60(TB) leukemia; MCF7 breast; SN12K1 renal; P388/ADR leukemia; NCI-H460 lung; NCI/ADR-RES ovarian; A498 renal; RXF 393 renal; U251 CNS; XF 498 CNS; TK-10 renal; M14 melanoma; SR leukemia; ACHN renal; SNB-78 CNS; LXFL 529 NSCLC.
Assay in all cases: NCI tumour cell line growth inhibition, 48 h

Molecules are shown by their SMILES.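 Results reflect a 48-hour exposure of cells in 96-well plates to compound at five concentrations. TGI marks complete inhibition of growth.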

As for `C[C@H](N)C(=O)N[C@@H]1[C@H]2C(=C(O)C[C@@H](O)[C@@H]2O)C(=O)O[C@@H]1C`, the TGI in the assay with KM12 colon, in the assay with HOP-62 NSCLC, with DMS 114 small cell lung, in the assay with SK-MEL-2 melanoma, with HL-60(TB) leukemia and in the assay on MCF7 breast was > 100 µM in each case. Further, the TGI in the assay with SN12K1 renal, with P388/ADR leukemia, in the assay on NCI-H460 lung, in the assay on NCI/ADR-RES ovarian, in the assay with A498 renal and with RXF 393 renal was > 100 µM each time. The TGI in the assay on U251 CNS and with XF 498 CNS was > 100 µM in each case.

For `COc1ccc(/C(Cl)=C(\C=O)c2ccccc2)cc1OC`, the TGI with HOP-62 NSCLC was 81.8 µM; in the assay with TK-10 renal it was > 100 µM; with DMS 114 small cell lung, > 100 µM; in the assay on SK-MEL-2 melanoma it was > 100 µM; in the assay with M14 melanoma it was > 100 µM; with SR leukemia it was > 100 µM. Further, the TGI in the assay on HL-60(TB) leukemia is 76.9 µM; in the assay with ACHN renal, > 100 µM; in the assay on SNB-78 CNS, > 100 µM; in the assay with LXFL 529 NSCLC, 55.1 µM; with NCI-H460 lung, > 100 µM; in the assay with RXF 393 renal, 69 µM. Besides, the TGI in the assay on U251 CNS is > 100 µM.

For `C[C@H](CN1CC(=O)NC(=O)C1)N1CC(=O)NC(=O)C1`, the TGI in the assay on KM12 colon is > 100 µM; in the assay with HOP-62 NSCLC, > 100 µM; in the assay with MCF7 breast, > 100 µM; in the assay on SNB-78 CNS it was > 100 µM; in the assay with SN12K1 renal it was > 100 µM; with P388/ADR leukemia it was > 96.4 µM. The TGI in the assay on NCI-H460 lung, with NCI/ADR-RES ovarian, with A498 renal, in the assay on RXF 393 renal, in the assay with U251 CNS and in the assay with XF 498 CNS was > 100 µM in each case.

Regarding `CCOC(=O)C1=NN(c2ccc(Cl)cc2)C2=CC(C)=NN(C)C(=S)N21`, the TGI with KM12 colon is > 100 µM; with TK-10 renal, 62 µM; in the assay with M14 melanoma it was > 100 µM; with SR leukemia, > 100 µM; in the assay on HL-60(TB) leukemia, > 100 µM; with ACHN renal it was > 100 µM. The TGI in the assay on NCI-H460 lung was > 100 µM; with NCI/ADR-RES ovarian, > 100 µM; in the assay with RXF 393 renal, 47.3 µM; in the assay on U251 CNS it was 59.2 µM.

`O=C1OC(c2ccc(Cl)cc2)(c2ccc(Cl)cc2)c2c1ccc1ccccc21`: the TGI in the assay with KM12 colon, with TK-10 renal, in the assay on SK-MEL-2 melanoma, with HL-60(TB) leukemia, in the assay with ACHN renal and in the assay on SNB-78 CNS was > 100 µM throughout. Besides, the TGI in the assay on LXFL 529 NSCLC, with NCI-H460 lung, in the assay with A498 renal, in the assay on RXF 393 renal, in the assay on U251 CNS and in the assay on XF 498 CNS was > 100 µM each time.

On to `N/C(=N\N=C\c1cc2c(cc1Cl)OCO2)NO`, for which the TGI was > 100 µM in the assay on KM12 colon; > 100 µM with HOP-62 NSCLC; > 100 µM in the assay on DMS 114 small cell lung; > 88.3 µM with SK-MEL-2 melanoma; 41.7 µM in the assay on HL-60(TB) leukemia; > 100 µM with MCF7 breast. Besides, the TGI was > 100 µM in the assay with SNB-78 CNS; > 100 µM in the assay with SN12K1 renal; > 81.3 µM in the assay with P388/ADR leukemia; > 100 µM in the assay on NCI-H460 lung; 57.2 µM in the assay with NCI/ADR-RES ovarian; > 100 µM in the assay with A498 renal. Besides, the TGI is > 100 µM with RXF 393 renal, > 100 µM with U251 CNS and > 34.2 µM in the assay with XF 498 CNS.

Take `Nc1nn(CC(O)CO)c(=O)s1` (stereo not given): the TGI in the assay on HOP-62 NSCLC, in the assay with TK-10 renal, in the assay with DMS 114 small cell lung, with SK-MEL-2 melanoma, in the assay with M14 melanoma and with SR leukemia was > 100 µM throughout. The TGI with HL-60(TB) leukemia, in the assay on ACHN renal, in the assay with LXFL 529 NSCLC, in the assay on NCI-H460 lung, in the assay on A498 renal and in the assay on RXF 393 renal was > 100 µM each time. Also, the TGI in the assay with U251 CNS and in the assay on XF 498 CNS was > 100 µM in each case.

Source of the values: PubChem BioAssay (NCI).
